ChEMBL document CHEMBL1201862, “PubChem BioAssay data set” (2004)
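Results reflect a 48-hour exposure of cells in 96-well plates to compound at five concentrations. GI50 marks 50% less growth.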 The source made the active and inactive calls. Cut-off read from the data, not from the text of the source: active = GI50 up to about 1.1 µM and inactive = higher.

Key:
Experiment in all cases: NCI anticancer screen, dose series, 48 h
HOP-62 = system: HOP-62
HOP-92 = system: HOP-92
NCI-H226 = system: NCI-H226
SF-268 = system: SF-268
SR = system: SR
UACC-257 = system: UACC-257
CAKI-1 = system: CAKI-1
SW-620 = system: SW-620
CCRF-CEM = system: CCRF-CEM
MDA-MB-435 = system: MDA-MB-435
Hs-578T = system: Hs-578T
DU-145 = system: DU-145
MDA-N = system: MDA-N
HL-60 = system: HL-60
OVCAR-3 = system: OVCAR-3
T47D = system: T47D
A498 = system: A498
SK-OV-3 = system: SK-OV-3
OVCAR-8 = system: OVCAR-8
MOLT-4 = system: MOLT-4

SMILES	GI50 (HOP-62)	GI50 (HOP-92)	GI50 (NCI-H226)	GI50 (SF-268)	GI50 (SR)	GI50 (UACC-257)	GI50 (CAKI-1)	GI50 (SW-620)	GI50 (CCRF-CEM)	GI50 (MDA-MB-435)	GI50 (Hs-578T)	GI50 (DU-145)	GI50 (MDA-N)	GI50 (HL-60)	GI50 (OVCAR-3)	GI50 (T47D)	GI50 (A498)	GI50 (SK-OV-3)	GI50 (OVCAR-8)	GI50 (MOLT-4)
Cc1sc2nc(-c3ccc([N+](=O)[O-])cc3)c(/C=N/N=C(N)N)n2c1C	0.689 µM (active)	1.33 µM (inactive)	1.84 µM (inactive)	1.65 µM (inactive)	0.217 µM (active)	1.46 µM (inactive)	2.07 µM (inactive)	0.195 µM (active)	0.206 µM (active)	0.979 µM (active)	1.61 µM (inactive)	1.27 µM (inactive)	0.373 µM (active)	1.1 µM (active)	1.75 µM (inactive)	0.664 µM (active)	1.87 µM (inactive)	1.7 µM (inactive)	0.53 µM (active)	0.83 µM (active)
c1ccc(/C(=N/Nc2ccccn2)c2ncccn2)cc1	3.31 µM (inactive)	2.96 µM (inactive)	0.201 µM (active)	0.855 µM (active)	0.929 µM (active)	0.729 µM (active)	0.0528 µM (active)	0.0982 µM (active)	< 0.0183 µM (active)	2.77 µM (inactive)	2.59 µM (inactive)	3.99 µM (inactive)	16.5 µM (inactive)	0.0524 µM (active)	0.386 µM (active)	0.0346 µM (active)	> 100 µM (inactive)	2.3 µM (inactive)	0.369 µM (active)	0.0662 µM (active)
NC(=O)ON=C1CCN(Cc2ccccc2)CC1	> 100 µM (inactive)	> 100 µM (inactive)	> 100 µM (inactive)	> 100 µM (inactive)	> 100 µM (inactive)	> 100 µM (inactive)	> 100 µM (inactive)	> 100 µM (inactive)	> 100 µM (inactive)	> 100 µM (inactive)	> 100 µM (inactive)	> 100 µM (inactive)	> 100 µM (inactive)	> 100 µM (inactive)	> 100 µM (inactive)	> 100 µM (inactive)	> 100 µM (inactive)	> 100 µM (inactive)	> 100 µM (inactive)	> 100 µM (inactive)
COC(=O)/C=C1\C(=O)C=C2[C@@H]3C[C@H]4C[C@H](CC[C@@]4(C)N21)C3(C)NC(C)=O (stereo partly specified)	20.7 µM (inactive)	18 µM (inactive)	25.5 µM (inactive)	6.68 µM (inactive)	18.8 µM (inactive)	15.6 µM (inactive)	5.64 µM (inactive)	2.8 µM (inactive)	4.4 µM (inactive)	9.02 µM (inactive)	10.9 µM (inactive)	10.7 µM (inactive)	11.2 µM (inactive)	5.55 µM (inactive)	11.8 µM (inactive)	7.23 µM (inactive)	19 µM (inactive)	24.2 µM (inactive)	16.6 µM (inactive)	3.33 µM (inactive)
COc1ccc(OC)c(NC2=NCCO2)c1	> 100 µM (inactive)	< 0.01 µM (active)	> 100 µM (inactive)	> 100 µM (inactive)	66.4 µM (inactive)	> 100 µM (inactive)	15 µM (inactive)	13.6 µM (inactive)	> 100 µM (inactive)	89.7 µM (inactive)	> 100 µM (inactive)	> 100 µM (inactive)	45.4 µM (inactive)	83.8 µM (inactive)	> 100 µM (inactive)	> 100 µM (inactive)	> 100 µM (inactive)		> 100 µM (inactive)	> 100 µM (inactive)
C=C(Cl)c1c(OC)cccc1OCc1ccccc1	> 100 µM (inactive)	22.2 µM (inactive)	48.2 µM (inactive)	> 100 µM (inactive)	26.8 µM (inactive)	20 µM (inactive)	> 100 µM (inactive)	71 µM (inactive)	75 µM (inactive)	37 µM (inactive)	> 100 µM (inactive)	> 100 µM (inactive)	42 µM (inactive)	29.2 µM (inactive)	> 100 µM (inactive)	25.1 µM (inactive)	62.4 µM (inactive)	> 100 µM (inactive)	> 100 µM (inactive)	64.7 µM (inactive)
CCOC(=O)NC(Nc1cc(Cl)ccc1OC)(C(F)(F)F)C(F)(F)F	> 100 µM (inactive)	> 100 µM (inactive)	> 100 µM (inactive)	> 100 µM (inactive)	74.3 µM (inactive)	> 100 µM (inactive)	> 100 µM (inactive)	> 100 µM (inactive)	25.9 µM (inactive)	> 100 µM (inactive)	> 100 µM (inactive)	> 100 µM (inactive)	> 100 µM (inactive)	> 100 µM (inactive)	> 100 µM (inactive)	> 100 µM (inactive)	> 100 µM (inactive)	> 100 µM (inactive)		> 100 µM (inactive)
CCOC(=O)Cc1ccc(Nc2nc3cc(C(F)(F)F)ccc3nc2C(=O)OCC)cc1	35 µM (inactive)	38.8 µM (inactive)	17.6 µM (inactive)	37.3 µM (inactive)	> 100 µM (inactive)	> 100 µM (inactive)	30.1 µM (inactive)	> 100 µM (inactive)		> 100 µM (inactive)	30 µM (inactive)	> 100 µM (inactive)	> 100 µM (inactive)	> 100 µM (inactive)	> 100 µM (inactive)	> 100 µM (inactive)	32.7 µM (inactive)	51.4 µM (inactive)	67.5 µM (inactive)	> 100 µM (inactive)
CN(C)C[C@H]1CC[C@@H](CN(C)C)C1=O	> 50 µM (inactive)	8.47 µM (inactive)	13.1 µM (inactive)	11.2 µM (inactive)	2.21 µM (inactive)	8.47 µM (inactive)	8.79 µM (inactive)	2.11 µM (inactive)		9.66 µM (inactive)	18.7 µM (inactive)	24.3 µM (inactive)	8.55 µM (inactive)	1.29 µM (inactive)	9.06 µM (inactive)	7.03 µM (inactive)	49.2 µM (inactive)	> 50 µM (inactive)	9.08 µM (inactive)	1.23 µM (inactive)
CCOC(=O)NC(Nc1ccc(S(=O)(=O)Nc2ccc(OC)nn2)cc1)(C(F)(F)F)C(F)(F)F	25.8 µM (inactive)	28.5 µM (inactive)	23 µM (inactive)	36.1 µM (inactive)	24.7 µM (inactive)	33.1 µM (inactive)	> 100 µM (inactive)	44.1 µM (inactive)	26.5 µM (inactive)	14.5 µM (inactive)	35.2 µM (inactive)	43.5 µM (inactive)	42 µM (inactive)	26.7 µM (inactive)	20.7 µM (inactive)	> 100 µM (inactive)	26.3 µM (inactive)	52 µM (inactive)	38.2 µM (inactive)	15.8 µM (inactive)
COC(=O)c1ccc(/C=C/C2=CC(=O)C=CC2=O)cc1	50.8 µM (inactive)	13.5 µM (inactive)	17.6 µM (inactive)	16.7 µM (inactive)	3.3 µM (inactive)	17.1 µM (inactive)	13.8 µM (inactive)	16.8 µM (inactive)	2.4 µM (inactive)	17.4 µM (inactive)	44.6 µM (inactive)	45.1 µM (inactive)	41.7 µM (inactive)	2.37 µM (inactive)	9.73 µM (inactive)	6.35 µM (inactive)	18.7 µM (inactive)		16.8 µM (inactive)	2.74 µM (inactive)
O=C(Nc1ccccc1)c1cc(S(=O)(=O)n2ccnc2O)c(S)cc1Cl	> 100 µM (inactive)	> 100 µM (inactive)	> 100 µM (inactive)	> 100 µM (inactive)	> 100 µM (inactive)	> 100 µM (inactive)	> 100 µM (inactive)	> 100 µM (inactive)	> 100 µM (inactive)	> 100 µM (inactive)	> 100 µM (inactive)	> 100 µM (inactive)	> 100 µM (inactive)	> 100 µM (inactive)	> 100 µM (inactive)	> 100 µM (inactive)	> 100 µM (inactive)		> 100 µM (inactive)	> 100 µM (inactive)
CCCCCCCCCCCCCCCCOc1ccc(/C=C/C2=[N+](CCCl)CCO2)cc1	87.3 µM (inactive)	> 100 µM (inactive)	> 100 µM (inactive)		30.1 µM (inactive)	> 100 µM (inactive)	> 100 µM (inactive)	> 100 µM (inactive)	> 100 µM (inactive)	> 100 µM (inactive)	> 100 µM (inactive)	> 100 µM (inactive)	> 100 µM (inactive)	12 µM (inactive)	> 100 µM (inactive)	> 100 µM (inactive)	73.1 µM (inactive)	> 100 µM (inactive)	42 µM (inactive)	> 100 µM (inactive)
C[C@H]1SC(c2ccc(Cl)cc2Cl)N(NC(=O)c2ccncc2)C1=O (stereo partly specified)	33.7 µM (inactive)	45.7 µM (inactive)	18.5 µM (inactive)	22.5 µM (inactive)	55.8 µM (inactive)		> 100 µM (inactive)		30.1 µM (inactive)	23.9 µM (inactive)	64.7 µM (inactive)	38.1 µM (inactive)	23 µM (inactive)	28.9 µM (inactive)	42 µM (inactive)	37.1 µM (inactive)	12.4 µM (inactive)	65.2 µM (inactive)	49.9 µM (inactive)	> 10 µM (inactive)
